Data reported in paper PMC8667942 (Journal of Enzyme Inhibition and Medicinal Chemistry, 2021).

Assays:
Assay in all cases: Direct CYP inhibition assay, pooled human liver microsomes, LC-MS/MS
Assay type in all cases: in vitro ADME
CYP2A6 = target: T1, CYP2A6 (Homo sapiens, UniProt P11509); conditions: pooled HLMs, up to 50 μM, coumarin substrate
T1 construct: from tissue; host or cells: pooled human liver microsomes
T1 sequence (P11509 1-494): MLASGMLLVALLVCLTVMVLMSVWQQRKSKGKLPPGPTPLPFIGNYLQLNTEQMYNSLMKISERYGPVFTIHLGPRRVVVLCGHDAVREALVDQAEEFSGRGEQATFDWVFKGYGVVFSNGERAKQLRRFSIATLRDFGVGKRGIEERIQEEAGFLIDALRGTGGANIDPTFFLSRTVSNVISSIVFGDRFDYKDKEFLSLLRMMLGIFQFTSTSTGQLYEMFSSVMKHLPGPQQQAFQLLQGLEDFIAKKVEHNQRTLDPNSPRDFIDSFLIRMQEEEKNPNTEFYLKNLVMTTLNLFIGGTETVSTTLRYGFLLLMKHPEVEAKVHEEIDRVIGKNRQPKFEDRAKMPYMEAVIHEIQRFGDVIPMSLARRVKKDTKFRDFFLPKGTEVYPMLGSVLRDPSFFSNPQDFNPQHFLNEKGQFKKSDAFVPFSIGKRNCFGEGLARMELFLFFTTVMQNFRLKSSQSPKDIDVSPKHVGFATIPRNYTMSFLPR
Description: (§1) Reactions were incubated in eight-well strips placed in an 8 × 12 racks (1.2 ml; VWR, Emeryville, CA). The incubation mixtures (final volume, 200 μL) contained 0.2 mg/mL HLMs, 0.1 M phosphate buffer (pH 7.4), 1 mM NADPH, and various CYP isoform-specific substrate cocktail sets (A set: phenacetin, coumarin, amodiaquine, S-mephenytoin, dextromethorphan, and midazolam; B set: bupropion, tolbutamide, chlorzoxazone, and testosterone). […] Substrates were dissolved and serially diluted with acetonitrile to the required concentration in all experiments. […] The reactions were incubated at 37 °C in a shaking water bath. The reactions were terminated by placing the incubation tubes on ice, adding 200 μL of cold acetonitrile containing carbamazepine (100 nM) and 4-methylumbelliferone (500 nM) as an internal standard after 10 min, and agitating with a vortex mixer before centrifugation. The samples for each enzyme assay were centrifuged at 3,000 × g for 20 min at 4 °C, and supernatants of the individual reaction samples and pooled cocktail incubation samples (A set: B set, 1:1) were analysed using LC-MS/MS.
(§2) Sample injection volume was 10 μL, and separation was performed on an Atlantis™ dC18 column (2.1 × 50 mm i.d., 3 μm; Waters, Milford, MA, USA) and Luna™5u C18 column (2.0 × 30 mm i.d.; Phenomenex, Torrance, CA, USA) with a SecurityGuard™ C18 guard column (2.0 × 4.0 mm i.d.; Phenomenex, Torrance, CA, USA) maintained at 30 °C. The column was pre-equilibrated in 100% v/v solvent A (deionized water containing 0.1% v/v formic acid)/0% v/v solvent B (acetonitrile containing 0.1% v/v formic acid) at a flow rate of 0.4 ml/min. […] Quadrupoles Q1 and Q3 were set on unit resolution. The samples were analysed via multiple reaction monitoring (MRM) and enhanced product ion (EPI) scan mode. The turbo ion spray interface was operated in the positive ion mode at 5,500 V. The operating conditions were determined as follows: ion source temperature, 600 °C; nebulising gas flow, 50 L/min; auxiliary gas flow, 4.0 L/min; curtain gas flow, 20 L/min; collision gas (nitrogen) pressure 3.6 × 10^−5 Torr. Nitrogen gas was used for CUR, CAD, and NEB. The MRM transitions, collision energies and retention time were determined for each metabolite. The samples were analysed via MRM as described in our previous study. The scan dwell time was set at 0.08 s for every channel. Data acquisition and analysis was performed using the Analyst™ software (version 1.5.2; Applied Biosystems, Foster City, CA, USA).

CYP1A2 = target: T2, CYP1A2 (Homo sapiens, UniProt P05177); conditions: pooled HLMs, up to 50 μM, phenacetin substrate
T2 construct: from tissue; host or cells: pooled human liver microsomes
T2 sequence (P05177 1-516): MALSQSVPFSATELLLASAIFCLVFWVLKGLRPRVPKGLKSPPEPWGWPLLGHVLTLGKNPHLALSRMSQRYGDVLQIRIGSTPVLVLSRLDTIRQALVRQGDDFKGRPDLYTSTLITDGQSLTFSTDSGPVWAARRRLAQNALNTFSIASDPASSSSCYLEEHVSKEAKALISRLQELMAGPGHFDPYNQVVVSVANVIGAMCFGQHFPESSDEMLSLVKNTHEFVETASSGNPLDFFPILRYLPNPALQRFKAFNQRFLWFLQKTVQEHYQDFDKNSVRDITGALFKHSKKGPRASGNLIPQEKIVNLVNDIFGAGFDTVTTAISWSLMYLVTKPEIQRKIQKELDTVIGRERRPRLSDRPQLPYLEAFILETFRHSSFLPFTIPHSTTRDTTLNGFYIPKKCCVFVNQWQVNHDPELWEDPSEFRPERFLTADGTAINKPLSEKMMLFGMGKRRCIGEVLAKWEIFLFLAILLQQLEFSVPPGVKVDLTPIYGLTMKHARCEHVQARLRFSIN
Description: as §1, §2

CYP2C19 = target: T3, CYP2C19 (Homo sapiens, UniProt P33261); conditions: pooled HLMs, up to 50 μM, S-mephenytoin substrate
T3 construct: from tissue; host or cells: pooled human liver microsomes
Description: as §1, §2

CYP2B6 = target: T4, CYP2B6 (Homo sapiens, UniProt P20813); conditions: pooled HLMs, up to 50 μM, bupropion substrate
T4 construct: from tissue; host or cells: pooled human liver microsomes
T4 sequence (P20813 1-491): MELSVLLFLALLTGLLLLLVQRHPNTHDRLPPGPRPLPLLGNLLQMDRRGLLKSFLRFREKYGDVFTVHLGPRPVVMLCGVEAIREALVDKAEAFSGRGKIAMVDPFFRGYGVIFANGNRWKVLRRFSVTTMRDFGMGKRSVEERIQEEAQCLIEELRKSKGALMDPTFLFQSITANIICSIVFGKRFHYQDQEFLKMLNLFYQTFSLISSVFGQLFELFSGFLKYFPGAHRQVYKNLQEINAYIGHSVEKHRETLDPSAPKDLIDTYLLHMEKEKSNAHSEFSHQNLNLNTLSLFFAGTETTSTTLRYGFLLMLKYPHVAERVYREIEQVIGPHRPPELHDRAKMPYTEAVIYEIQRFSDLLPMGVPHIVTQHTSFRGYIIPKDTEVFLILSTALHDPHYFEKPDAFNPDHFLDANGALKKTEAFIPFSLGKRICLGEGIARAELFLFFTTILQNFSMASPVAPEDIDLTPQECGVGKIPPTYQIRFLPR
Description: as §1, §2

T3 sequence (P33261 whole entry): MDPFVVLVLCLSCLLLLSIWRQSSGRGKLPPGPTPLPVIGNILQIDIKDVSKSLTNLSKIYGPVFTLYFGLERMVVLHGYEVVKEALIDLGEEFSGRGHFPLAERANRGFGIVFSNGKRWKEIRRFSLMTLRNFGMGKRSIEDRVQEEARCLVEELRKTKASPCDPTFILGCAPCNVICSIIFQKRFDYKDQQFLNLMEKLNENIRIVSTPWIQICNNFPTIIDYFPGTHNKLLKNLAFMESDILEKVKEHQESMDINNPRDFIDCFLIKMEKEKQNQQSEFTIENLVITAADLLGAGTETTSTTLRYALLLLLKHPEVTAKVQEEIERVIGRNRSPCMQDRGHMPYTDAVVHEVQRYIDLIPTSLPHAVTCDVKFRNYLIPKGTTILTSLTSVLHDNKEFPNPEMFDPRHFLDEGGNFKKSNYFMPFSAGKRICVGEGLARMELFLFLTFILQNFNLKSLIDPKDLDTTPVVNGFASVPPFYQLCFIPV

O=[N+]([O-])c1ccc(CNc2nc(NCc3cccc(C(F)(F)F)c3)nc3[nH]cnc23)cc1 [TNP, N^6-[(4-nitrophenyl)methyl]-N^2-[[3-(trifluoromethyl)phenyl]methyl]-9H-purine-2,6-diamine]
no inhibitory effect: inhibitory effect on CYP2A6 (CYP2A6) | inhibitory effect on CYP1A2 (CYP1A2) | inhibitory effect on CYP2C19 (CYP2C19) | inhibitory effect on CYP2B6 (CYP2B6)
